{"source": "paper PMC10303791", "about": "(BMC Biology, 2023)", "assay_in_all_cases": "two-electrode voltage clamp, oocytes, concentration-response", "type_in_all_cases": "cell-based", "key": {"[1]": {"target": "T1, Xenopus tropicalis α4β2 nAChR, α4β2(FS) (Xenopus tropicalis, UniProt A0A8J0QAC2+A4IIS6)", "T1 construct": "gene chrna4; full-length single subunits in pCMV-SPORT6 (Dharmacon), cRNA co-injected in Xenopus laevis oocytes; stoichiometry unknown", "from_the_text": "(§1) two-electrode voltage clamp, oocytes, concentration-response on Xenopus tropicalis α4β2 nAChR, α4β2(FS)"}, "[2]": {"target": "T2, Xenopus tropicalis α4β2 nAChR, α4β2(FS) (Xenopus tropicalis, UniProt A0A8J0QAC2+A4IIS6, A4IIS6:F131L/A4IIS6:S133C)", "T2 construct": "gene chrna4; full-length single subunits in pCMV-SPORT6 (Dharmacon), cRNA co-injected in Xenopus laevis oocytes; stoichiometry unknown", "from_the_text": "as §1"}, "[3]": {"target": "T3, Xenopus tropicalis α4β2 nAChR, α4β2(FS) (Xenopus tropicalis, UniProt A0A8J0QAC2+A4IIS6, A4IIS6:S133C)", "T3 construct": "gene chrna4; full-length single subunits in pCMV-SPORT6 (Dharmacon), cRNA co-injected in Xenopus laevis oocytes; stoichiometry unknown", "from_the_text": "as §1"}, "[4]": {"test_system": "T4, Nanorana parkeri α4β2 nAChR, α4β2(FS)", "T4 construct": "full-length single subunits, codon-optimized synthetic DNA in pGEMHE, cRNA co-injected in Xenopus laevis oocytes; behaves as 3α:2β (conjecture)", "settings": "agonist; α4:β2 cRNA ratio 1:3; -70 mV; Ba-ND96 with 1 µM atropine; room temperature; high-sensitivity site of biphasic fit, 95% CI", "text": "two-electrode voltage clamp, oocytes, concentration-response on Nanorana parkeri α4β2 nAChR, α4β2(FS)"}}, "data": [{"smiles": "CC(=O)OCC[N+](C)(C)C", "note": "[acetylcholine]", "values": [{"measurement": "EC50", "setting": "[1]", "value": 47, "unit": "nM"}, {"measurement": "EC50", "setting": "[2]", "value": 21, "unit": "nM"}, {"measurement": "EC50", "setting": "[3]", "value": 18, "unit": "nM"}, {"measurement": "EC50", "setting": "[4]", "value": 290, "unit": "nM"}]}]}
